Data from the NIST ThermoML archive (doi:10.1021/je700300y).

Experiment: xn = mol fraction of the nth substance listed
Settings: 101 kPa, Liquid

CO [methanol] + O
mass density [kg/m3]
Settings | 283.15 K | 288.15 K | 293.15 K | 298.15 K | 303.15 K | 308.15 K | 313.15 K
x2 = 0.0871 | 814.96 | 810.44 | 805.91 | 801.35 | 796.78 | 792.17 | 787.52
x2 = 0.1529 | 826.26 | 821.86 | 817.44 | 812.99 | 808.5 | 803.98 | 799.41
x2 = 0.2395 | 841.8 | 837.53 | 833.23 | 828.9 | 824.53 | 820.11 | 815.64
x2 = 0.3306 | 859.01 | 854.89 | 850.73 | 846.53 | 842.28 | 837.98 | 833.61
x2 = 0.4064 | 873.83 | 869.85 | 865.81 | 861.73 | 857.59 | 853.4 | 849.13
x2 = 0.4788 | 888.32 | 884.5 | 880.62 | 876.68 | 872.67 | 868.59 | 864.45
x2 = 0.5552 | 904.06 | 900.44 | 896.75 | 893 | 889.17 | 885.26 | 881.28
x2 = 0.6365 | 921.03 | 917.69 | 914.28 | 910.78 | 907.2 | 903.52 | 899.76
x2 = 0.7321 | 941.06 | 938.2 | 935.24 | 932.18 | 929.02 | 925.74 | 922.36
x2 = 0.7901 | 952.73 | 950.29 | 947.7 | 945 | 942.19 | 939.27 | 936.09
x2 = 0.8807 | 970.64 | 969.11 | 967.39 | 965.47 | 963.37 | 961.09 | 958.65
x2 = 0.964 | 988.96 | 988.25 | 987.25 | 986 | 984.5 | 982.79 | 980.87

CCO [ethanol] + O
mass density [kg/m3]
Settings | 283.15 K | 288.15 K | 293.15 K | 298.15 K | 303.15 K | 308.15 K | 313.15 K
x2 = 0.0805 | 808.05 | 803.79 | 799.51 | 795.19 | 790.85 | 786.45 | 782.01
x2 = 0.1584 | 818.14 | 813.87 | 809.57 | 805.23 | 800.84 | 796.41 | 791.93
x2 = 0.2376 | 828.89 | 824.61 | 820.29 | 815.93 | 811.53 | 807.07 | 802.5
x2 = 0.3322 | 842.93 | 838.67 | 834.37 | 830.01 | 825.61 | 821.15 | 816.63
x2 = 0.4026 | 854.12 | 849.89 | 845.61 | 841.27 | 836.89 | 832.45 | 827.94
x2 = 0.491 | 869.86 | 865.67 | 861.44 | 857.16 | 852.81 | 848.4 | 843.95
x2 = 0.5806 | 888.19 | 884.08 | 879.93 | 875.71 | 871.44 | 867.11 | 862.72
x2 = 0.648 | 903.57 | 899.55 | 895.48 | 891.35 | 887.16 | 882.91 | 878.59
x2 = 0.7185 | 921.65 | 917.78 | 913.84 | 909.85 | 905.8 | 901.68 | 897.49
x2 = 0.8009 | 944.6 | 941.07 | 937.48 | 933.81 | 930.07 | 926.25 | 922.34
x2 = 0.8813 | 965.96 | 963.49 | 960.85 | 958.06 | 955.13 | 952.05 | 948.82
x2 = 0.9605 | 984.04 | 983.11 | 981.89 | 980.42 | 978.75 | 976.91 | 974.89
